Reference: patent publication US9474736B2, “Composition and method for treating dry eye syndrome” (RAMSCOR, INC., priority 2008, dated 2016)
“Also recorded” adds a separate entry of the source.

Columns and labels:
[1] = Water evaporation from tocopherol/water emulsions; format: physicochemical; conditions: uncapped vials, ambient conditions, nine days
Method: FIG. 3 is a bar graph depicting the percent water evaporation from a tocopherol/water emulsions at nine days, shown as the percent water lost.
Mixtures of α-tocopheryl acetate (EA), d-α-tocopheryl polyethylene glycol 1000 succinate (TPGS) and water were prepared at the ratios shown in Table 1, weighed, and placed in 20 ml-sized glass vials. Vials #1 through #6 were each capped and sonicated for two minutes to yield stable emulsions. The vials #1 through #8 were then uncapped and left at ambient conditions for nine days. All the emulsions in vials #1 through #6 remained stable. All vials were weighed subsequently to measure weight (water) loss. […] Results are also depicted in FIG. 3.

[2] = Water or saline stably absorbed in α-tocopheryl acetate (evaporative weight loss); format: physicochemical; conditions: sealed vials, 30° C., after 12 hrs
Method: In an alternative study, the concentrations of water or saline that would remain stably absorbed in α-tocopheryl acetate (EA) were examined. Equal volumes of water or 0.9% saline were placed with EA in sealed vials at 30° C. Samples of the resultant EA plus absorbed aqueous were removed at several time points and the water contents were assayed by evaporative weight loss to constant weight over time at 30° C. open to the air. After 12 hrs exposure of EA to water or the saline solution in sealed vials at 30° C. the maximum amounts of aqueous solutions absorbed in EA were reached. The resultant values were: 0.3% water absorbed and 0.6% saline solution absorbed.

CDE symptoms = assay: Alleviation of CDE symptoms in contact lens-wearing individual, subjective comfort; format: in vivo, human
Excerpt: FIG. 1 is a bar graph depicting the subjective comfort of an individual applying a drop of α-tocopheryl acetate into the eye(s) before bedtime preceding the days indicated. Subjective comfort is depicted on a scale of 1 to 10; with 1 being very irritated, and right eye feeling swollen; and 10 being very comfortable and tolerable compared to no drops.
A volunteer used one drop of α-tocopheryl acetate in one or more eyes at night, and reported the irritation or comfort on a subjective scale of 1-to-10, (maximum irritation “1”, maximum comfort “10”) as shown in FIG. 1. At days 1 to 5, the individual placed one drop in the right eye only.

[3] = design: species or system New Zealand White (NZW) rabbits; conditions: both, New Zealand White, rabbit, in vivo
Method: FIG. 2 is a graph showing the levels of α-tocopheryl acetate in the tears of rabbits over the course of seven days after the rabbits were administered one drop of α-tocopheryl acetate (3.6 mg, 3.9 mg, 5.4 mg, or 6.0 mg) on day one.
Four adult New Zealand White (NZW) rabbits (two females, two males) each weighing 4.5 kilo to 5.0 kilo were used in this example. One drop of α-tocopheryl acetate, each weighing 3.6 mg, 3.9 mg, 5.4 mg and 6.0 mg, was instilled onto one eye of each animal. Tear samples were collected daily by filter paper, weighed, eluted in 300 μl MeOH and analyzed for tocopheryl acetate (EA) by LC/MS/MS. Detected tear levels of EA over a seven-day period ranged from 15 μg/ml to 36 μg/ml with a mean of 26 μg/ml (26,000 ng/ml). Detectable levels of EA in the cul-de-sac of the rabbit eye may last beyond seven days.

dry eye syndrome = assay: Topical application of α-tocopheryl acetate eyedrop in human volunteers with dry eye symptoms; conditions: for duration of relief from dry eye symptoms: one drop about 50 μl

g wt loss [1] | maximum saline solution absorbed in EA ([2]; equal volumes 0.9% saline and EA) | maximum water absorbed in EA ([2]; equal volumes water and EA) | detected tear levels of EA, mean [3] | SMILES | ability to wear contact lenses (CDE symptoms; days 30-38, eyedrops not applied every single night) | duration of comfort before re-applying eyedrops (CDE symptoms; volunteer, one drop at night) | irritation or blurred vision reported (dry eye syndrome; one drop about 50 μl in eye, two human volunteers) | duration of relief from dry eye symptoms (dry eye syndrome; no repeat applications, both volunteers) | duration of relief from dry eye symptoms (dry eye syndrome; one subject)
lost no weight |  |  |  | CC(=O)Oc1c(C)c(C)c2c(c1C)CCC(C)(CCC[C@H](C)CCC[C@H](C)CCCC(C)C)O2 (stereo partly drawn) [vial 8, α-tocopheryl acetate] |  |  |  |  | 
 | 0.6% | 0.3% | 26,000 ng/ml | CC(=O)Oc1c(C)c(C)c2c(c1C)CCC(C)(CCC[C@H](C)CCC[C@H](C)CCCC(C)C)O2 (stereo partly drawn) [α-tocopheryl acetate] | able to wear contact lenses (days 30-38) in relative comfort | up to five days | No irritation or blurred vision | several days; also recorded: at least one day | at least seven days
